Test results reported in patent publication US20260206757A1, “METHODS OF CONTROLLING UNDESIRABLE PLANTS WITH PPO HERBICIDES AND COMBINATIONS IN HERBICIDE TOLERANT CROP PLANTS” (BASF AGRO B.V., priority 2022, published 2026).

How the values were obtained:
Amaranthus palmeri = assay: Field experiment, pre-emergence herbicidal activity on bare ground; assay type: in vivo; conditions: AMAPA, Preem, Saflufenacil 25, Flumioxazin 71.4 g ai/ha
Experimental: (§1) Trial Objective: Efficacy of Saflufenacil in tank mix with Flumioxazin applied in pre-emergence of the weeds on bare ground.
(§2) On field test sites, natural weed infestation was treated, pre-emergence of the weeds on bare soil or post-emergence of the weeds.
(§3) For the pre-emergence treatment, the active compounds, suspended or emulsified in water, were applied by means of finely distributing nozzles on bare ground.
(§4) In the following experiments, the herbicidal activity for the individual herbicidal compositions (solo and mixture applications) was assessed up to 36 days after treatment (DAT). The assessments for the damage on undesired weeds caused by the chemical compositions was carried out using a scale from 0 to 100%, compared to the untreated control plants. Here, 0 means no damage and 100 means complete destruction of the plants.
(§5) [formula] • where X=effect in percent using herbicide (A) at an application rate a; • Y=effect in percent using herbicide (B) at an application rate b; • E=expected effect (in %) of herbicide (A)+herbicide (B) at application rates a+b.
(§6) The value E corresponds to the effect (plant damage or injury) which is to be expected if the activity of the individual compounds is additive. If the observed effect is higher than the value E calculated according to the Colby equation, a synergistic effect is present.

Ambrosia trifida = assay: as above; assay type: in vivo; conditions: AMBTR, Preem, Saflufenacil 50, Flumioxazin 71.4 g ai/ha
Experimental: as §1, §2, §3, §4, §5, §6

Digitaria sanguinalis = assay: as above; assay type: in vivo; conditions: DIGSA, Preem, Saflufenacil 25, Flumioxazin 71.4 g ai/ha
Experimental: as §1, §2, §3, §4, §5, §6

Setaria faberi = assay: as above; assay type: in vivo; conditions: SETFA, Preem, Saflufenacil 50, Flumioxazin 71.4 g ai/ha
Experimental: as §1, §2, §3, §4, §5, §6

Eleusine indica = assay: as above; assay type: in vivo; conditions: ELEIN
Experimental: as §1
(§7) Trial Objective: Efficacy of Saflufenacil in tank mix with Sulfentrazone applied in pre-emergence of the weeds on bare ground.
as §2, §3, §4, §5, §6

Urochloa texana = assay: as above; assay type: in vivo; conditions: PANTE
Experimental: as §1, §7, §2, §3, §4, §5, §6

Abutilon theophrasti = assay: Greenhouse experiment, post emergence herbicidal activity; assay type: in vivo; conditions: ABUTH
Experimental: (§8) For the post emergence treatment, the plants were first grown to the 2 to 4 leaf stage (GS 12/14). The plants were cultivated due to their individual requirements at 10-25° C. and 20-35° C. The plants were irrigated as required.
(§9) Here, the herbicidal compositions were suspended or emulsified in water as distribution medium and sprayed using finely distributing nozzles. 1% methylated seed oil (MSO) has been added as adjuvant to each of the solo and mixture treatments.
(§10) In the greenhouse experiments, the herbicidal activity for the individual herbicidal compositions (solo and mixture applications) was assessed 20/21 days after treatment (DAT).
(§11) The evaluation for the damage on undesired weeds caused by the chemical compositions was carried out using a scale from 0 to 100%, compared to the untreated control plants. Here, 0 means no damage and 100 means complete destruction of the plants.

Ambrosia artemisiifolia = assay: as above; assay type: in vivo; conditions: AMBEL
Experimental: as §8, §9, §10, §11

Chenopodium album = assay: as above; assay type: in vivo; conditions: CHEAL
Experimental: as §8, §9, §10, §11

Convolvulus arvensis = assay: as above; assay type: in vivo; conditions: CONAR
Experimental: as §8, §9, §10, §11

Echinochloa crus-galli = assay: as above; assay type: in vivo; conditions: ECHCG
Experimental: as §8, §9, §10, §11

Erigeron canadensis = assay: as above; assay type: in vivo; conditions: ERICA
Experimental: as §8, §9, §10, §11

Hibiscus trionum = assay: as above; assay type: in vivo; conditions: HIBTR
Experimental: as §8, §9, §10, §11

Matricaria chamomilla = assay: as above; assay type: in vivo; conditions: MATCH
Experimental: as §8, §9, §10, §11

Mercuralis annua = assay: as above; assay type: in vivo; conditions: MERAN
Experimental: as §8, §9, §10, §11

Papaver rhoeas = assay: as above; assay type: in vivo; conditions: PAPRH
Experimental: as §8, §9, §10, §11

Polygonum aviculare = assay: as above; assay type: in vivo; conditions: POLAV
Experimental: as §8, §9, §10, §11

Setaria viridis = assay: as above; assay type: in vivo; conditions: SETVI
Experimental: as §8, §9, §10, §11

Sonchus arvensis = assay: as above; assay type: in vivo; conditions: SONAR
Experimental: as §8, §9, §10, §11

Sorghum halepense = assay: as above; assay type: in vivo; conditions: SORHA
Experimental: as §8, §9, §10, §11

Solanum nigrum = assay: as above; assay type: in vivo; conditions: SOLNI, BBCH 12-14, Flumioxazin 1, Fomesafen 123 g ai/ha
Experimental: as §8, §9, §10, §11

sunflower = conditions: applied to sunflower with at least two true leaves; cited from earlier work
[1] = Preem, Saflufenacil 25, Flumioxazin 71.4 g ai/ha
[2] = preemergence, Saflufenacil 25, Sulfentrazone 210 g ai/ha
[3] = Preem, Saflufenacil 50, Flumioxazin 71.4 g ai/ha
[4] = BBCH 12-14, Saflufenacil 1, Bifenox 168 g ai/ha
[5] = BBCH 12-14, Saflufenacil 1, Imazamox 10 g ai/ha
[6] = BBCH 12-14, Saflufenacil 0.5, Clethodim 30 g ai/ha
[7] = BBCH 12-14, Saflufenacil 1, Flumioxazin 2 g ai/ha
[8] = BBCH 12-14, Saflufenacil 0.5, Flumioxazin 2 g ai/ha
[9] = BBCH 12-14, Saflufenacil 0.5, Bifenox 168 g ai/ha
[10] = BBCH 12-14, Saflufenacil 4, Flumioxazin 2 g ai/ha
[11] = BBCH 12-14, Flumioxazin 2, Fomesafen 123 g ai/ha
[12] = BBCH 12-14, Flumioxazin 0.5, Halauxifen 1 g ai/ha
[13] = BBCH 12-14, Flumioxazin 0.5, Imazamox 10 g ai/ha
[14] = BBCH 12-14, Flumioxazin 2, Halauxifen 1 g ai/ha
[15] = BBCH 12-14, Flumioxazin 0.5, Bifenox 168 g ai/ha
[16] = BBCH 12-14, Flumioxazin 2, Tribenuron-methyl 6 g ai/ha
[17] = BBCH 12-14, Flumioxazin 0.5, Pyraflufen-ethyl 1.5 g ai/ha

CC(C)N(C)S(=O)(=O)NC(=O)c1cc(-n2c(=O)cc(C(F)(F)F)n(C)c2=O)c(F)cc1Cl [Saflufenacil, 2-chloro-5-[3,6-dihydro-3-methyl-2,6-dioxo-4-(trifluoromethyl)-1-(2H)pyrimidinyl]-4-fluoro-N-[[methyl (1-methylethyl)amino]-sulfonyl]benzamide]
% Herbicidal activity (Amaranthus palmeri): 27% | % Herbicidal activity (Ambrosia trifida): 67% | % Herbicidal activity (Digitaria sanguinalis): 7% | % Herbicidal activity (Setaria faberi): 37% | % Herbicidal activity (Eleusine indica; [1]): 3% | % Herbicidal activity (Eleusine indica; [2]): 8% | % Herbicidal activity (Urochloa texana; [3]): 13% | % Herbicidal activity (Urochloa texana; [2]): 20% | % Herbicidal activity (Abutilon theophrasti; [4]): 90% | % Herbicidal activity (Abutilon theophrasti; BBCH 12-14, Saflufenacil 2, Fomesafen 1 g ai/ha): 70% | % Herbicidal activity (Ambrosia artemisiifolia; [4]): 80% | % Herbicidal activity (Ambrosia artemisiifolia; BBCH 12-14, Saflufenacil 1, Clethodim 30 g ai/ha): 80% | % Herbicidal activity (Ambrosia artemisiifolia; [5]): 80% | % Herbicidal activity (Ambrosia artemisiifolia; BBCH 12-14, Saflufenacil 1, Tribenuron-methyl 6 g ai/ha): 80% | % Herbicidal activity (Chenopodium album; BBCH 12-14, Saflufenacil 4, Clethodim 30 g ai/ha): 95% | % Herbicidal activity (Convolvulus arvensis; [6]): 30% | % Herbicidal activity (Convolvulus arvensis; BBCH 12-14, Saflufenacil 0.5, Halauxifen 1 g ai/ha): 30% | % Herbicidal activity (Convolvulus arvensis; [4]): 80% | % Herbicidal activity (Echinochloa crus-galli; BBCH 12-14, Saflufenacil 4, Fomesafen 123 g ai/ha): 85% | % Herbicidal activity (Erigeron canadensis; [7]): 90% | % Herbicidal activity (Hibiscus trionum; [6]): 80% | % Herbicidal activity (Hibiscus trionum; [8]): 80% | % Herbicidal activity (Matricaria chamomilla; [6]): 45% | % Herbicidal activity (Matricaria chamomilla; [7]): 45% | % Herbicidal activity (Matricaria chamomilla; [5]): 45% | % Herbicidal activity (Matricaria chamomilla; BBCH 12-14, Saflufenacil 2, Halauxifen 1 g ai/ha): 98% | % Herbicidal activity (Mercuralis annua; [9]): 60% | % Herbicidal activity (Papaver rhoeas; [9]): 95% | % Herbicidal activity (Polygonum aviculare; [6]): 75% | % Herbicidal activity (Polygonum aviculare; [7]): 3% | % Herbicidal activity (Setaria viridis; BBCH 12-14, Saflufenacil 0.5, Imazamox 10 g ai/ha): 25% | % Herbicidal activity (Setaria viridis; [7]): 70% | % Herbicidal activity (Sonchus arvensis; [6]): 98% | % Herbicidal activity (Sorghum halepense; BBCH 12-14, Saflufenacil 4, Bifenox 168 g ai/ha): 60% | % Herbicidal activity (Sorghum halepense; [10]): 60%

C#CCN1C(=O)COc2cc(F)c(N3C(=O)C4=C(CCCC4)C3=O)cc21 [Flumioxazin, 2-[7-fluoro-3,4-dihydro-3-oxo-4-(2-propyn-1-yl)-2H-1,4-benzoxazin-6-yl]-4,5,6,7-tetrahydro-1H-isoindole-1,3 (2H)-dione]
% Herbicidal activity (Amaranthus palmeri): 85% | % Herbicidal activity (Ambrosia trifida): 65% | % Herbicidal activity (Digitaria sanguinalis): 88% | % Herbicidal activity (Setaria faberi): 72% | % Herbicidal activity (Eleusine indica; [1]): 80% | % Herbicidal activity (Urochloa texana; [3]): 35% | % Herbicidal activity (Abutilon theophrasti; BBCH 12-14, Flumioxazin 1, Imazamox 10 g ai/ha): 90% | % Herbicidal activity (Abutilon theophrasti; BBCH 12-14, Flumioxazin 2, Bifenox 168 g ai/ha): 98% | % Herbicidal activity (Ambrosia artemisiifolia; BBCH 12-14, Flumioxazin 4, Imazamox 10 g ai/ha): 95% | % Herbicidal activity (Chenopodium album; BBCH 12-14, Flumioxazin 1, Bifenox 168 g ai/ha): 70% | % Herbicidal activity (Chenopodium album; [11]): 70% | % Herbicidal activity (Convolvulus arvensis; BBCH 12-14, Flumioxazin 0.5, Fomesafen 123 g ai/ha): 65% | % Herbicidal activity (Convolvulus arvensis; [12]): 65% | % Herbicidal activity (Convolvulus arvensis; BBCH12-14, Flumioxazin 0.5, Pyraflufen-ethyl 1.5 g ai/ha): 65% | % Herbicidal activity (Echinochloa crus-galli; [11]): 55% | % Herbicidal activity (Erigeron canadensis; BBCH 12-14, Flumioxazin 1, Pyraflufen-ethyl 1.5 g ai/ha): 60% | % Herbicidal activity (Erigeron canadensis; [7]): 75% | % Herbicidal activity (Hibiscus trionum; [13]): 75% | % Herbicidal activity (Hibiscus trionum; [8]): 90% | % Herbicidal activity (Matricaria chamomilla; BBCH 12-14, Flumioxazin 1, Fomesafen 123 g ai/ha): 60% | % Herbicidal activity (Matricaria chamomilla; [14]): 65% | % Herbicidal activity (Matricaria chamomilla; [7]): 75% | % Herbicidal activity (Mercuralis annua; [13]): 70% | % Herbicidal activity (Papaver rhoeas; [15]): 85% | % Herbicidal activity (Papaver rhoeas; [12]): 85% | % Herbicidal activity (Papaver rhoeas; [16]): 85% | % Herbicidal activity (Polygonum aviculare; [17]): 45% | % Herbicidal activity (Polygonum aviculare; BBCH 12-14, Flumioxazin 4, Bifenox 168 g ai/ha): 95% | % Herbicidal activity (Polygonum aviculare; [7]): 80% | % Herbicidal activity (Setaria viridis; [12]): 30% | % Herbicidal activity (Setaria viridis; [16]): 70% | % Herbicidal activity (Setaria viridis; [7]): 65% | % Herbicidal activity (Solanum nigrum): 90% | % Herbicidal activity (Sonchus arvensis; [15]): 50% | % Herbicidal activity (Sonchus arvensis; [17]): 50% | % Herbicidal activity (Sonchus arvensis; [14]): 50% | % Herbicidal activity (Sorghum halepense; [10]): 50% | crop injury (sunflower): without high level of crop injury
